Data reported in patent US20220288207A1, “PHOTO INDUCED CONTROL OF PROTEIN DESTRUCTION” (Beth Israel Deaconess Medical Center, Inc., priority 2019, published 2022).
Entries after “also recorded” stand apart in the source; their conditions may differ.

What was measured:
[1] = Uncaging (photolysis) by UVA irradiation in vitro, UV-VIS absorption / UPLC-MS analysis; type: physicochemical; details: 1 mM, UVA 365 nm, time course
Method: HPLC spectra were acquired using an Agilent 1200 Series system with DAD detector for all the intermediates and Opto-PROTACs below. Chromatography was performed on a 2.1×150 mm Zorbax 300SB-C18 5 μm column with water containing 0.1% formic acid as solvent A and acetonitrile containing 0.1% formic acid as solvent B at a flow rate of 0.4 ml/min. The gradient program was as follows: 1% B (0-1 min), 1-99% B (1-4 min), and 99% B (4-8 min). High-resolution mass spectra (FIRMS) data were acquired in positive ion mode using an Agilent G1969A API-TOF with an electrospray ionization (ESI) source. Nuclear Magnetic Resonance (NMR) spectra were acquired on a Bruker DRX-600 spectrometer with 600 MHz for proton (^1H NMR) and 151 MHz for carbon (^13C NMR); chemical shifts are reported in (δ). Preparative HPLC was performed on Agilent Prep 1200 series with UV detector set to 254 nm. Samples were injected onto a Phenomenex Luna 250×30 mm, 5 μm, C18 column at room temperature. The flow rate was 40 ml/min. A linear gradient was used with 10% of acetonitrile (A) in H2O (with 0.1% TFA) (B) to 100% of acetonitrile (A). HPLC was used to establish the purity of target compounds. All final compounds had >95% purity using the HPLC methods described above.
(§1) UV-Vis spectrometry was performed on a NanoDrop-2000 UV-Visible Spectrophotometer. Pomalidomide, opto-pomalidomide, dBET1, opto-dBET1, dALK and opto-dALK were dissolved in DMSO and diluted to indicated concentration, followed by UVA irradiation for indicated duration of time. Then the samples were subjected to UV-Vis spectrometry analysis. Pomalidomide and opto-pomalidomide mixture solutions were made with the indicated ratio. Absorption values at 364 nm were measured to draw standard curve. dBET1 and opto-dBET1 mixture solution were made with the indicated ratios. Absorption values at 340 nm were measured to draw standard curve. dALK and opto-dALK mixture solution were made with indicated ratio. Absorption values at 370 nm were measured to draw standard curve.

[2] = UV-VIS absorption spectrum; type: physicochemical; details: in DMSO
Method: as §1

CRBN = target: T1, CRBN (Homo sapiens, UniProt Q96SW2); test: Competitive binding in vitro pull-down assay (biotin-pomalidomide pulls down Flag-CRBN)
T1 construct: made in house; host or cells: HEK293T
Method: Flag-CRBN was expressed in HEK293T cells lysed in PROTAC buffer B (50 mM Tris pH 7.5, 150 mM NaCl, 0.5% NP-40) supplemented with protease inhibitors (cOmplete Mini, Roche) and phosphatase inhibitors (phosphatase inhibitor cocktail set I and II, Calbiochem). 3mg cell lysis was incubated with 10 μl 10mM biotin-pomalidomide and […] streptavidin beads for 1 h at 4° C. in the absence or presence of pomalidomide or opto-pomalidomide. Then, the beads were washed four times with NETN buffer (20 mM Tris, pH 8.0, 100 mM NaCl, 1 mM EDTA and 0.5% NP-40) before being resolved by SDS-PAGE and immunoblotted with indicated antibodies.

CRBN and IKZF1 = target: T2, CRBN and IKZF1 (Homo sapiens, UniProt Q13422+Q96SW2); test: CRBN-IKZF1 interaction, Flag-IP and immunoblot in HEK293T cells; type: cell-based; details: 10 μM MG132 12 hours
T2 construct: expressed in transfected cells; host or cells: HEK293T
Method: (§2) MM.1S, MT2, C4-2, NCI-H2228 and NCI-H3122 cells were cultured in RPMI1640 containing 10% fetal bovine serum (FBS), 100 Units of penicillin and 100 μg/ml streptomycin. […] For UVA irradiation, cells were pretreated with opto-PROTACs for 2-4 hours, and then subjected to UVA irradiation for indicated durations.
(§3) Cells were lysed in EBC lysis buffer (50 mM Tris pH 7.5, 120 mM NaCl, 0.5% NP-40), supplemented with protease inhibitors (cOmplete Mini, Roche) and phosphatase inhibitors (phosphatase inhibitor cocktail set I and II, Calbiochem). The protein concentrations of the lysates were measured using the Bio-Rad protein assay reagent on a Beckman Coulter DU-800 spectrophotometer. The lysates were then resolved by sodium dodecylsulfate-polyacrylamide gel ectrophoresis (SDS-PAGE) and immunoblotted with indicated antibodies. For immunoprecipitation, 1 mg lysates were incubated with the appropriate sepharose beads for 4 h at 4° C. Immuno-complexes were washed four times with NETN lysis buffer (20 mM Tris, pH 8.0, 100 mM NaCl, 1 mM EDTA and 0.5% NP-40) before being resolved by SDS-PAGE and immunoblotted with indicated antibodies.

IKZF1/3 = IKZF1/3 degradation, immunoblot of MM1S cells; type: cell-based
Method: as §2, §3

MM1S cells = test: CCK-8 cell viability assay, MM1S cells; type: cell-based; details: MM1S cells, UVA irradiation (365 nm) 15 min
Method: (§4) Human embryonic kidney 293T (HEK293T) cells and HEK293FT were maintained in Dulbecco's Modified Eagle's Medium (DMEM) containing 10% fetal bovine serum (FBS), 100 Units of penicillin and […] streptomycin. MM.1S, MT2, C4-2, NCI-H2228 and NCI-H3122 cells were cultured in RPMI1640 containing 10% fetal bovine serum (FBS), 100 Units of penicillin and 100 μg/ml streptomycin. 293FT^CRBN+/+, 293FT^CRBN+/+ , MM.1S^CRBN+/+ and MM.1S^CRBN−/− cells were provided Dr. William G. Kaelin (Dana-Farber Cancer Institute). For UVA irradiation, cells were pretreated with opto-PROTACs for 2-4 hours, and then subjected to UVA irradiation for indicated durations.
(§5) Cell in 96-well plates were incubated with 10 ul/well of CCK-8 solution and incubated for 2 hours, followed by the measurement of optical density using a microplate reader with a 450 nm filter (O.D. 450).

MT2 cells = test: CCK-8 cell viability assay, MT2 cells; type: cell-based; details: UVA irradiation (365 nm) 15 min
Method: as §4, §5

IKZF1 [3] = target: T3, IKZF1 (Homo sapiens, UniProt Q13422+Q96SW2); test: IKZF1 degradation, immunoblot of MT2 cells; type: cell-based; design: endogenous in cells; host or cells: MT2; details: with UVA irradiation
Method: as §4
as §3, with “Immuno-complexes were washed four times with NETN lysis buffer (20 mM Tris, pH 8.0, 100 mM NaCl, 1 mM EDTA and 0.5% NP-40) before being resolved by SDS-PAGE and immunoblotted with indicated antibodies.” left out

IKZF1 [4] = target: T3, IKZF1; test: In vivo ubiquitination assay of IKZF1 by CRBN in HEK293T cells (Ni-NTA pull down); type: cell-based; design: expressed in transfected cells; host or cells: HEK293T; details: UVA irradiation (365 nm) 15 min
Method: Briefly, HEK293T cells were transfected with Flag-CRBN, His-ubiquitin and HA-IKZF1 or GFP-BRD2 or GFP-BRD3. 24 hours after transfection, pomalidomide, opto-pomalidomide, dBET1 or opto-dBET1 were added to the cell culture together with 10 μM MG132 for 12 hours and cells were harvested in denatured buffer A (6 M guanidine-HCl, pH 8.0, 0.1 M Na2HPO4/NaH2PO4, 10 mM imidazole). After sonication, the ubiquitinated proteins were purified by incubation with Ni-NTA matrices for 3 hours at room temperature. The pull-down products were washed sequentially twice in buffer A, twice in buffer ANTI mixture (buffer A: buffer TI=1:3) and once in buffer TI (25 mM Tris-HCl, pH 6.8, 20 mM imidazole). The poly-ubiquitinated proteins were separated by SDS-PAGE for immunoblot analysis.

Question: What does the source list for `COc1cc(COC(=O)N2C(=O)CCC(N3C(=O)c4cccc(N)c4C3=O)C2=O)c([N+](=O)[O-])cc1OC` (stereo not drawn) [opto-pomalidomide, 4,5-dimethoxy-2-nitrobenzyl 3-(4-amino-1,3-dioxoisoindolin-2-yl)-2,6-dioxopiperidine-1-carboxylate]?
Answer: uncaging (photolysis) by UVA irradiation in vitro [1]: could be induced to undergo photolysis by UVA irradiation in vitro; maximum in absorption of UV-VIS absorption spectrum [2]: 364 nm; binding with CRBN (CRBN; after UVA irradiation (365 nm, 30 min)): regained ability to bind with CRBN; binding with CRBN (CRBN; without UVA irradiation): ineffective to bind with CRBN in vitro; interaction between CRBN and IKZF1 (CRBN and IKZF1; UVA irradiation (365 nm) 15 min): regained the ability to promote the binding between CRBN and IKZF 1; interaction between CRBN and IKZF1 (CRBN and IKZF1; without UVA irradiation): ineffective in guiding the protein-protein interaction between CRBN and IKZF1; degradation of IKZF1/3 (IKZF1/3; MM1S cells, UVA irradiation (365 nm) for different durations): occurred in a drug-dose and UVA-dose dependent manner; degradation of IKZF1/3 (IKZF1/3; MM1S-CRBN+/+ vs. MM1S-CRBN−/− cells, 12 hours, without UVA irradiation, opto-drug up to 10-fold excess): lost this function without UVA irradiation; cell proliferation (CCK-8) (MM1S cells): largely dependent on UVA irradiation; also recorded: inhibits MM1S cell proliferation in a dose-dependent manner; cell proliferation (CCK-8) (MT2 cells): inhibits MT2 cell proliferation in a dose-dependent manner; degradation of IKZF1 (IKZF1 [3]): mediate IKZF1 degradation in MT2 cells; ubiquitination of IKZF1 by CRBN (IKZF1 [4]): leading to CRBN-mediated IKZF1 ubiquitination
